This note sets out measurements from BindingDB's records for doi:10.1016/s0960-894x(01)00038-5 (Glaxosmithkline, 2001).

The assay deals with Lipoprotein-associated phospholipase A2 (Rattus norvegicus). Put plainly: Concentration required for inhibition ofLipoprotein associated phospholipase A2 in rat at dose 2 umol/kg/h.

For orientation: IC50 means the concentration that gives 50% inhibition. A higher IC50 goes with a need for much substance.

Structures are written as SMILES.

Compound `CCCCCCCCCCCCN(C)C(=O)Cn1cc(Cc2cnc(=O)n(CC(=O)O)c2)c(=O)nc1SCc1ccc(F)cc1` [{5-[1-[(Dodecyl-methyl-carbamoyl)-methyl]-2-(4-fluoro-benzylsulfanyl)-4-oxo-1,4-dihydro-pyrimidin-5-ylmethyl]-2-oxo-2H-pyrimidin-1-yl}-acetic acid] returned an IC50 of 533 nM.
